Experimental data from patent US8450341B2, “Substituted indolin-2-one derivatives and their use as P38 mitogen-activated kinase inhibitors” (Almirall, S.A., priority 2008, dated 2013).

Each molecule was assayed against T1, human p38alfa (SAPKa) enzyme (Homo sapiens, UniProt Q16539) (assay: Inhibition assay: p38alfa enzymatic activity (FRET, biotinylated ATF2 substrate)). Details: 1 h pre-incubation; ATF2 0.62 μM and ATP 60 μM; 1 h at 25° C.; read-out: p38α IC50.
T1 construct: purchased University of Dundee
T1 sequence (Q16539 whole entry): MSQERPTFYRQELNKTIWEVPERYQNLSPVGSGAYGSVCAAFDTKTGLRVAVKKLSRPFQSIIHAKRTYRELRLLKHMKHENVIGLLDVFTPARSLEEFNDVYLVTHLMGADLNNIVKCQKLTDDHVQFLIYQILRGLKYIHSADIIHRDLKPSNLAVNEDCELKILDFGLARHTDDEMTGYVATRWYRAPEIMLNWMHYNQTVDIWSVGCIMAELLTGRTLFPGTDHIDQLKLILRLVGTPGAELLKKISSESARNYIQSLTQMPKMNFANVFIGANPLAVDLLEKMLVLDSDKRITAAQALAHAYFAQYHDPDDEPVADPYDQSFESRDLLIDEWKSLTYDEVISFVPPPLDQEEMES
Assay type: biochemical
Procedure: Various concentrations of the test compound or vehicle controls were pre-incubated for one hour with 0.055 μg/ml of the human p38alfa (SAPKa) enzyme (obtained from University of Dundee). […] Addition of the detection reagents, streptavidin-XL665 and anti-phosphoresidue antibody coupled to Europium cryptate, caused the juxtaposition of the cryptate and the XL665 fluorophore, resulting in fluorescence energy transfer (FRET). The FRET intensity depends on the amount of bounded cryptate antibody, which is proportional to the extent of substrate phosphorylation. FRET intensity was measured using Victor 2V spectrofluorometer.
Data were analyzed by non-linear regression (Hill equation) to generate a dose-response curve.

| SMILES | IC50 [nM] |
| --- | --- |
| Cc1ccc2c(NC3CC3)noc2c1-c1ccc2c(c1)NC(=O)C21CCCC1 [Example 1, 6′-(3-(Cyclopropylamino)-6-methylbenzo[d]isoxazol-7-yl)spiro[cyclopentane-1,3′-indolin]-2′-one] | 0.9 |
| O=C1Nc2cc(-c3cccc4c(NC5CC5)noc34)ccc2C12CCCC2 [Example 2, 6′-(3-(Cyclopropylamino)benzo[d]isoxazol-7-yl)spiro[cyclopentane-1,3′-indolin]-2′-one] | 39 |
| O=C1Nc2cc(-c3cccc4c(NC5CC5)noc34)c(Cl)cc2C12CCCC2 [Example 3, 5′-Chloro-6′-(3-(cyclopropylamino)benzo[d]isoxazol-7-yl)spiro[cyclopentane-1,3′-indolin]-2′-one] | 4 |
| Cc1ccc2c(NC3CC3)noc2c1-c1ccc2c(c1)NC(=O)C21CCOCC1 [Example 4, 6-(3-(Cyclopropylamino)-6-methylbenzo[d]isoxazol-7-yl)-2′,3′,5′,6′-tetrahydrospiro [indoline-3,4′-pyran]-2-one] | 0.2 |
| Cc1ccc2c(NC3CC3)noc2c1-c1ccc2c(c1)NC(=O)C21CCC(F)(F)CC1 [Example 5, 6′-(3-(Cyclopropylamino)-6-methylbenzo[d]isoxazol-7-yl)-4,4-difluorospiro [cyclohexane-1,3′-indolin]-2′-one] | 0.06 |
| Cc1ccc2c(NC3CC3)noc2c1-c1ccc2c(c1)NC(=O)C2(C)C [Example 6, 6-(3-(Cyclopropylamino)-6-methylbenzo[d]isoxazol-7-yl)-3,3-dimethylindolin-2-one] | 0.4 |
| Cc1ccc2c(NC3CC3)noc2c1-c1cnc2c(c1)NC(=O)C21CCOCC1 [Example 7, 6′-(3-(cyclopropylamino)-6-methylbenzo[d]isoxazol-7-yl)-2,3,5,6-tetrahydrospiro[pyran-4,3′-pyrrolo[3,2-b]pyridin]-2′(1′H)-one] | 6.3 |
| Cc1ccc2c(NC3CC3)noc2c1-c1cnc2c(c1)NC(=O)C21CCC(C)(O)CC1 (stereo not drawn) [Example 8, 6′-(3-(cyclopropylamino)-6-methylbenzo[d]isoxazol-7-yl)-4-hydroxy-4-methylspiro[cyclohexane-1,3′-pyrrolo[3,2-b]pyridin]-2′(1′H)-one] | 0.65 |
| Cc1ccc2c(NC3CC3)noc2c1-c1cnc2c(c1)NC(=O)C21CCC(C)(O)CC1 (stereo not drawn) [Example 9, 6′-(3-(cyclopropylamino)-6-methylbenzo[d]isoxazol-7-yl)-4-hydroxy-4-methylspiro[cyclohexane-1,3′-pyrrolo[3,2-b]pyridin]-2′(1′H)-one] | 0.4 |
| Cc1ccc2c(N)noc2c1-c1ccc2c(c1)NC(=O)C21CCOCC1 [Example 11, 6-(3-Amino-6-methylbenzo[d]isoxazol-7-yl)-2′,3′,5′,6′-tetrahydrospiro[indoline-3,4′-pyran]-2-one] | 10 |
| Cc1ccc2c(N)noc2c1-c1ccc2c(c1)NC(=O)C21CCC(C)(O)CC1 (stereo not drawn) [Example 12, 6′-(3-amino-6-methylbenzo[d]isoxazol-7-yl)-4-hydroxy-4-methylspiro[cyclohexane-1,3′-indolin]-2′-one] | 0.9 |
| Cc1ccc2c(N)noc2c1-c1ccc2c(c1)NC(=O)C21CCC(OCCN2CCOCC2)CC1 (stereo not drawn) [Example 13, 6′-(3-amino-6-methylbenzo[d]isoxazol-7-yl)-4-(2-morpholinoethoxy)spiro[cyclohexane-1,3′-indolin]-2′-one] | 3.3 |
| Cc1ccc2c(N)noc2c1-c1ccc2c(c1)NC(=O)C21CCC(F)(F)CC1 [Example 14, 6′-(3-Amino-6-methyl-1,2-benzisoxazol-7-yl)-4,4-difluorospiro[cyclohexane-1,3′-indol]-2′(1′H)-one] | 1 |
| Cc1ccc2c(N)noc2c1-c1ccc2c(c1)NC(=O)C2(C)C [Example 15, 6-(3-Amino-6-methyl-1,2-benzisoxazol-7-yl)-3,3-dimethyl-1,3-dihydro-2H-indol-2-one] | 38 |
| Cc1ccn2c(NCC3CC3)nnc2c1-c1ccc2c(c1)NC(=O)C21CCCC1 [Example 20, 6′-(3-(cyclopropylmethylamino)-7-methyl-[1,2,4]triazolo[4,3-a]pyridin-8-yl)spiro[cyclopentane-1,3′-indolin]-2′-one] | 20 |
